Data as given in patent US20250250251A1, “PIPERIDINYLPYRIDINYLCARBONITRILE DERIVATIVES AS INHIBITORS OF GLUTAMINYL-PEPTIDE CYCLOTRANSFERASE AND GLUTAMINYL-PEPTIDE CYCLOTRANSFERASE LIKE PROTEIN” (Boehringer Ingelheim International GmbH, priority 2024, published 2025).

System: murine hepatocytes
Test: Assay E: stability in murine hepatocytes
Assay type: in vitro ADME, mouse
Details: Table 13, prior art compounds, 1 μM, 5% species serum
Procedure, shortened: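 Cryopreserved mouse hepatocytes, typically 1 Mio cells/mL in medium with 5% species serum, were dosed at 1 μM compound (0.05% DMSO) at 37 °C and sampled over 0–6 h. Parent decline was measured by HPLC-MS/MS and CLint calculated from dose/AUC, then scaled by well-stirred liver model.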

For Cn1cnnc1C1CCN(c2c(-c3ccnnc3)ccc(Cl)c2C#N)CC1 [Compound 33, reference compound], the “Mouse Hepatocyte Stability QH” value was 45%.
